Data on twelve compounds can be found in patent publication US11739098B2 (BRISTOL-MYERS SQUIBB COMPANY, priority 2017, dated 2023).

Common to all, as to assay type: cell-based
In one assay the target is T1, human TLR7 (Homo sapiens, UniProt Q9NYK1).
T1 construct: host or cells: HEK-Blue cells (HEK293-derived reporter line)
T1 sequence (Q9NYK1 27-1049): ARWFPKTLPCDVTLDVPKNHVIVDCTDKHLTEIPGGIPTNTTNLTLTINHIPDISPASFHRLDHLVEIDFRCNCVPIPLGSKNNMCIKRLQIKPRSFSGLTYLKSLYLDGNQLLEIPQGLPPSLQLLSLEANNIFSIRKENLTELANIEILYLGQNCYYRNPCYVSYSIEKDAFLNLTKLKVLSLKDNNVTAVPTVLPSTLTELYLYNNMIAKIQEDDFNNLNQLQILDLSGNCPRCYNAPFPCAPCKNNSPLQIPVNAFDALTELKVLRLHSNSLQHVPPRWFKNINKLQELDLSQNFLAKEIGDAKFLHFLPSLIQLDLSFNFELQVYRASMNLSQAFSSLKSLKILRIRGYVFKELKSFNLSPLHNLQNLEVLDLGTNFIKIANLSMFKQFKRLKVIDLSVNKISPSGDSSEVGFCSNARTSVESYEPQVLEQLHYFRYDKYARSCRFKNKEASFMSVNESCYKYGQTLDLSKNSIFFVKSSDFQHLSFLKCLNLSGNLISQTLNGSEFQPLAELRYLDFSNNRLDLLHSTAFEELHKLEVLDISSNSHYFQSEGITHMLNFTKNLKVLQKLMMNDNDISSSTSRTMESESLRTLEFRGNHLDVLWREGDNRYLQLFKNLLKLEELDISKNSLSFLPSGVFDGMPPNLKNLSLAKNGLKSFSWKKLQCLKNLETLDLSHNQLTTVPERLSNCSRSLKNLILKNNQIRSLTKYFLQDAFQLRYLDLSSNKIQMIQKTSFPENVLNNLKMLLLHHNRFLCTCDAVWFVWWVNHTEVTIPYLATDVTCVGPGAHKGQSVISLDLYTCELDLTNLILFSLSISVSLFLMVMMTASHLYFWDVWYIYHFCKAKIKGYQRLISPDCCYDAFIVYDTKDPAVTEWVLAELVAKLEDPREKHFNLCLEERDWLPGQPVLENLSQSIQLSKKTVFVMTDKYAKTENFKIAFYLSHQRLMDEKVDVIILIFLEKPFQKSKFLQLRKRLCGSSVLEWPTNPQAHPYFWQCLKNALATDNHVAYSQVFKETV
In words: TLR7 inhibition reporter assay (HEK-Blue cells, SEAP reporter, gardiquimod stimulation). As to conditions: HEK-Blue cells overexpressing human TLR7, SEAP reporter, gardiquimod 7.5 μM. In outline: (§1)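 After 22 h at 37 °C, SEAP secretion was measured from human TLR7-, TLR8- or TLR9-expressing HEK-Blue reporter cells given compound (0.05 nM–50 μM) 30 min before agonist: 7.5 μM gardiquimod, 15.9 μM R848 or 5 nM ODN2006 respectively. Percent inhibition referenced to agonist-plus-DMSO and known-inhibitor wells.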
Background: A reporter such as luciferase makes a cellular process visible.

For a further assay, the target named is T2, human TLR9 (Homo sapiens, UniProt Q9NR96).
T2 construct: host or cells: HEK-Blue cells (HEK293-derived reporter line)
T2 sequence (Q9NR96 26-1032): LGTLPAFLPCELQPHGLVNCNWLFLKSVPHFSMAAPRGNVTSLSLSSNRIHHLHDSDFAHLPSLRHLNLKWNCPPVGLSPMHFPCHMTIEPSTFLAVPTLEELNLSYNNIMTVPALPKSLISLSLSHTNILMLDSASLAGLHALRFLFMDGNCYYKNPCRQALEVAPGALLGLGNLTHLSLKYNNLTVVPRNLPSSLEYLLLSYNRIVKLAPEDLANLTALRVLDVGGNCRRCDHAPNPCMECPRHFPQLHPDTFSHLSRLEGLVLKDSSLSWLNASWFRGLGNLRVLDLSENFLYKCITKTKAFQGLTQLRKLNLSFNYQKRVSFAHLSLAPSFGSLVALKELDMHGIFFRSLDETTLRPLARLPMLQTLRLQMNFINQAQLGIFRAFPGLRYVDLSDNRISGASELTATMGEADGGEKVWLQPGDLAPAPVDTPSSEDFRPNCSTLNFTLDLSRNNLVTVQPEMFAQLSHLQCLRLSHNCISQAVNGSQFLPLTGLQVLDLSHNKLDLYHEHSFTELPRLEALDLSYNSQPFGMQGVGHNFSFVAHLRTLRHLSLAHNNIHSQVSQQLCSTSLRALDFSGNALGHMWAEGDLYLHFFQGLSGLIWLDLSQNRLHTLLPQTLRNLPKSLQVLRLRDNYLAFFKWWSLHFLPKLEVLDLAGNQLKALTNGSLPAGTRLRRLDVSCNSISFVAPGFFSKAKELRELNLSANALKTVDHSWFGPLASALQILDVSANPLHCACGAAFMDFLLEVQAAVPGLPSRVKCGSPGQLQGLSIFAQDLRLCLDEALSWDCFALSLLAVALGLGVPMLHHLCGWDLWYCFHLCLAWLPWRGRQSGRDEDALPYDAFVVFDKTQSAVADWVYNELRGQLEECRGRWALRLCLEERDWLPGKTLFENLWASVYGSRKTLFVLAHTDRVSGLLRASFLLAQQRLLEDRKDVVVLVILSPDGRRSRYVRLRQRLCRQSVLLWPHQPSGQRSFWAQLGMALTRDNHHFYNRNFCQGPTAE
In words: TLR9 inhibition reporter assay (HEK-Blue cells, SEAP reporter, ODN2006 stimulation). The note with it: HEK-Blue cells overexpressing human TLR9, SEAP reporter, ODN2006 5 nM. In outline: as §1

In the next assay the target is T3, human TLR8 (Homo sapiens, UniProt Q9NR97).
T3 construct: host or cells: HEK-Blue cells (HEK293-derived reporter line)
T3 sequence (Q9NR97 27-1041): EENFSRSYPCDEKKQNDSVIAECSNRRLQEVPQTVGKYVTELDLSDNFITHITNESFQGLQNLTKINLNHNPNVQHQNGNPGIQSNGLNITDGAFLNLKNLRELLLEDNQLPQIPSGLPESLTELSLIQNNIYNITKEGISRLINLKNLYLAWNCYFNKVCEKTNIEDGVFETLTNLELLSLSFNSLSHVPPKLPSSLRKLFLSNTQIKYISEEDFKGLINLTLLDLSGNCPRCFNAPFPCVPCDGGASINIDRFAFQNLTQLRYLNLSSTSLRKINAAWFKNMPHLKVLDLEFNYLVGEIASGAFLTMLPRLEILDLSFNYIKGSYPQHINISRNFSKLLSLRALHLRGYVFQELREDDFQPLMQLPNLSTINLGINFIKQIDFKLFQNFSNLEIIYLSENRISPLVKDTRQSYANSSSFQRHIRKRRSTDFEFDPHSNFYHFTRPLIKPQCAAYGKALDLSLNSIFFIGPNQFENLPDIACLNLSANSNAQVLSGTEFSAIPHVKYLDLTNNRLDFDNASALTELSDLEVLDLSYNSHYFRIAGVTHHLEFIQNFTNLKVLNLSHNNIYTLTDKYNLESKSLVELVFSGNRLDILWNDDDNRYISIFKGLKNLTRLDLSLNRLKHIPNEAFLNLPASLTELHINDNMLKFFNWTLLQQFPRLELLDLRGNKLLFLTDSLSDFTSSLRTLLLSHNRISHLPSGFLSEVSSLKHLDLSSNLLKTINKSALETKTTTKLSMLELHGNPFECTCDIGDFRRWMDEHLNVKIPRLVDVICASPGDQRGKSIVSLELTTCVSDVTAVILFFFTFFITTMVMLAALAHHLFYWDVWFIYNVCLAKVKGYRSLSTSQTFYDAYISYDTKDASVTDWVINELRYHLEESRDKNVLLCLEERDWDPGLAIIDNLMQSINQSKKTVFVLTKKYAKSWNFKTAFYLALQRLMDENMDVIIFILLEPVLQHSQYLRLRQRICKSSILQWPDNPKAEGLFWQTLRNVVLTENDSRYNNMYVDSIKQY
Put plainly: TLR8 inhibition reporter assay (HEK-Blue cells, SEAP reporter, R848 stimulation). The note with it: HEK-Blue cells overexpressing human TLR8, SEAP reporter, R848 15.9 μM. In outline:
as §1

Molecules are shown by their SMILES.

For the compound `CNCCN1CCC(c2ccc3[nH]c(-c4ccnc5[nH]ncc45)c(C(C)C)c3c2)C(F)C1` (stereo not drawn) [Example 675, 2-(3-fluoro-4-(3-isopropyl-2-(1H-pyrazolo[3,4-b]pyridin-4-yl)-1H-indol-5-yl)piperidin-1-yl)-N-methylethan-1-amine], the IC50 (commonly the concentration that gives 50% inhibition) is less than 100 nM at human TLR7, 100 to 1000 nM on human TLR9 and less than 100 nM against human TLR8.

Turning to `CNCCN1CCC(c2ccc3[nH]c(-c4ccc5nc(C)cn5c4)c(C(C)C)c3c2)CC1` [Example 676, 2-(4-(3-isopropyl-2-(2-methylimidazo[1,2-a]pyridin-6-yl)-1H-indol-5-yl)piperidin-1-yl)-N-methylethan-1-amine], the IC50 on human TLR7 is less than 100 nM; on human TLR9, 100 to 1000 nM; against human TLR8 it was 100 to 1000 nM.

For the compound `CNCCN1CCC(c2ccc3[nH]c(-c4ccnc5[nH]ncc45)c(C(C)C)c3c2)C(F)C1` (stereo not drawn) [Example 677, 2-(3-fluoro-4-(3-isopropyl-2-(1H-pyrazolo[3,4-b]pyridin-4-yl)-1H-indol-5-yl)piperidin-1-yl)-N-methylethan-1-amine], the results for the IC50 against human TLR7, against human TLR9 and against human TLR8 were less than 100 nM, 100 to 1000 nM and less than 100 nM, respectively.

Take `CNCCN1CCC(c2ccc3[nH]c(-c4ccnc5[nH]ncc45)c(C(C)C)c3c2)C(F)C1` (stereo not drawn) [Example 678, 2-(3-fluoro-4-(3-isopropyl-2-(1H-pyrazolo[3,4-b]pyridin-4-yl)-1H-indol-5-yl)piperidin-1-yl)-N-methylethan-1-amine]: the figures for the IC50 against human TLR7, on human TLR9 and on human TLR8 were 100 to 1000 nM, 1000 to 50000 nM and less than 100 nM, respectively.

Take `CNCCN1CCC(c2ccc3[nH]c(-c4ccnc5[nH]ncc45)c(C(C)C)c3c2)C(F)C1` (stereo not drawn) [Example 679, 2-(3-fluoro-4-(3-isopropyl-2-(1H-pyrazolo[3,4-b]pyridin-4-yl)-1H-indol-5-yl)piperidin-1-yl)-N-methylethan-1-amine]: the IC50 on human TLR7 was less than 100 nM; against human TLR9, 100 to 1000 nM; at human TLR8, less than 100 nM.

Regarding `CNCCN1CCC(c2ccc3[nH]c(-c4ccc5nccn5c4)c(C(C)C)c3c2)CC1` [Example 680, 2-(4-(2-(imidazo[1,2-a]pyridin-6-yl)-3-isopropyl-1H-indol-5-yl)piperidin-1-yl)-N-methylethan-1-amine], the IC50 against human TLR7 is less than 100 nM; against human TLR9, 100 to 1000 nM; at human TLR8 it was less than 100 nM.

`CNCCN1CCC(c2ccc3[nH]c(-c4ccc5nccn5c4)c(CC(F)F)c3c2)CC1` [Example 681, 2-(4-(3-(2,2-difluoroethyl)-2-(imidazo[1,2-a]pyridin-6-yl)-1H-indol-5-yl)piperidin-1-yl)-N-methylethan-1-amine]: the IC50 against human TLR7, against human TLR9 and against human TLR8 was less than 100 nM each time.

On to `CC(C)c1c(-c2ccnc3[nH]ncc23)[nH]c2ccc(C3CCN(C4CCOCC4)CC3)cc12` [Example 682, 4-(3-isopropyl-5-(1-(tetrahydro-2H-pyran-4-yl)piperidin-4-yl)-1H-indol-2-yl)-1H-pyrazolo[3,4-b]pyridine], for which the results for the IC50 at human TLR7, against human TLR9 and at human TLR8 were less than 100 nM, 1000 to 50000 nM and less than 100 nM, respectively.

With `CC(C)c1c(-c2ccc3ncnn3n2)[nH]c2ccc(C3CCN(C4CCOCC4)CC3)cc12` [Example 683, 6-(3-isopropyl-5-(1-(tetrahydro-2H-pyran-4-yl)piperidin-4-yl)-1H-indol-2-yl)-[1,2,4]triazolo[1,5-b]pyridazine], the figures for the IC50 against human TLR7, on human TLR9 and at human TLR8 were less than 100 nM, 1000 to 50000 nM and less than 100 nM, respectively.

For `Cc1c(-c2[nH]c3ccc(C4CCN(C5CCOCC5)CC4)cc3c2C(C)C)nn2ncnc2c1C` [Example 684, 6-(3-isopropyl-5-(1-(tetrahydro-2H-pyran-4-yl)piperidin-4-yl)-1H-indol-2-yl)-7,8-dimethyl-[1,2,4]triazolo[1,5-b]pyridazine], the IC50 is less than 100 nM against human TLR7, 1000 to 50000 nM at human TLR9 and less than 100 nM at human TLR8.

On to `COc1c(C)c(-c2[nH]c3ccc(C4CCN(C5CCOCC5)CC4)cc3c2C(C)C)nn2ncnc12` [Example 685, 6-(3-isopropyl-5-(1-(tetrahydro-2H-pyran-4-yl)piperidin-4-yl)-1H-indol-2-yl)-8-methoxy-7-methyl-[1,2,4]triazolo[1,5-b]pyridazine], for which the IC50 against human TLR7 is less than 100 nM; at human TLR9, 1000 to 50000 nM; against human TLR8, less than 100 nM.

Consider `Cc1cc(-c2[nH]c3ccc(C4CCN(C5CCOCC5)CC4)cc3c2C(C)C)nn2ncnc12` [Example 686, 6-(3-isopropyl-5-(1-(tetrahydro-2H-pyran-4-yl)piperidin-4-yl)-1H-indol-2-yl)-8-methyl-[1,2,4]triazolo[1,5-b]pyridazine], for which the IC50 is less than 100 nM against human TLR7, 1000 to 50000 nM against human TLR9 and less than 100 nM at human TLR8.
